From ChEMBL document CHEMBL4354881, “Optimization of Potent ATAD2 and CECR2 Bromodomain Inhibitors with an Atypical Binding Mode” (J Med Chem, 2020) come the findings set out here.

Structures are written as SMILES.

For test [1], the target named is T1, ATPase family AAA domain-containing protein 2B (Homo sapiens, UniProt Q9ULI0).
T1 sequence (Q9ULI0 whole entry): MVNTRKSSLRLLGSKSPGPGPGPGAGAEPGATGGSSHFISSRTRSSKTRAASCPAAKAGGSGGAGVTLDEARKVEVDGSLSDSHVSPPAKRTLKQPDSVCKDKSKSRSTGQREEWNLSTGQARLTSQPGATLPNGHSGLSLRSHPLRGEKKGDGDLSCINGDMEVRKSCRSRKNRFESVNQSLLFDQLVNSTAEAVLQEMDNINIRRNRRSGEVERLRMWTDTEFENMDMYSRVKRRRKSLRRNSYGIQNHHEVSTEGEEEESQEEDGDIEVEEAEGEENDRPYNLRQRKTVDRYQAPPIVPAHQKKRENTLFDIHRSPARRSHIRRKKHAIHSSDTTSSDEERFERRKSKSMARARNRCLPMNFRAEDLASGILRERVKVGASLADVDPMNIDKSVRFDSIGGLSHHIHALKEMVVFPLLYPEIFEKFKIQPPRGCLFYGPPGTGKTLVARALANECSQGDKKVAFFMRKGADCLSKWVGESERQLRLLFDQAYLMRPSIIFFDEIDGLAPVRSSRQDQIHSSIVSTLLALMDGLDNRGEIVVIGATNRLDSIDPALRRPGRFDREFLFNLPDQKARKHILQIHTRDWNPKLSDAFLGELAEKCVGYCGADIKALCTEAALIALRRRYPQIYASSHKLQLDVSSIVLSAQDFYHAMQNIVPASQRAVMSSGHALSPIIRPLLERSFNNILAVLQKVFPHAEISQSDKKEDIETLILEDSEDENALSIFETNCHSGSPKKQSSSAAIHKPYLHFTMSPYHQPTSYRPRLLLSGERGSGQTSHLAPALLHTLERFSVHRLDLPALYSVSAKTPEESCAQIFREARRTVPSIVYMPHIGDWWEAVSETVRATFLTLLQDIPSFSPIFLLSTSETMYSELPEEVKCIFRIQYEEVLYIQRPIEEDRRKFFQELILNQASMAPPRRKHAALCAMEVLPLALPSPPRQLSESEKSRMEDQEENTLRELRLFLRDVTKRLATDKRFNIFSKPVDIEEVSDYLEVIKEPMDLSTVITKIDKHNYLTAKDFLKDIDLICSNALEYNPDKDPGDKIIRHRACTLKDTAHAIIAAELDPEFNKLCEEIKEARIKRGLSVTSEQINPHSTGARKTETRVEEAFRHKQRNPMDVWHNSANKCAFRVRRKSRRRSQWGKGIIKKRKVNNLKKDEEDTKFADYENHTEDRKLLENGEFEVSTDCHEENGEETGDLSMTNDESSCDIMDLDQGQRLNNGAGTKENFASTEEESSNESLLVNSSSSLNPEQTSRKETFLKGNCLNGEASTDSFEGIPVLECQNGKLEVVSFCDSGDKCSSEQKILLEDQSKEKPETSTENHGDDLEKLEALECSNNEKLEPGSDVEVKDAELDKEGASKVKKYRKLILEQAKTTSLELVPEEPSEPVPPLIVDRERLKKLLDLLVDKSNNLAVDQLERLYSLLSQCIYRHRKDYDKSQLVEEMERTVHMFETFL
Briefly: Binding affinity to human partial length ATAD2B (Q955 to R1082 residues) expressed in bacterial expression system by BROMOscan assay.

Test [2] deals with T2, Bromodomain-containing protein 1 (Homo sapiens, UniProt O95696).
T2 sequence (O95696 whole entry): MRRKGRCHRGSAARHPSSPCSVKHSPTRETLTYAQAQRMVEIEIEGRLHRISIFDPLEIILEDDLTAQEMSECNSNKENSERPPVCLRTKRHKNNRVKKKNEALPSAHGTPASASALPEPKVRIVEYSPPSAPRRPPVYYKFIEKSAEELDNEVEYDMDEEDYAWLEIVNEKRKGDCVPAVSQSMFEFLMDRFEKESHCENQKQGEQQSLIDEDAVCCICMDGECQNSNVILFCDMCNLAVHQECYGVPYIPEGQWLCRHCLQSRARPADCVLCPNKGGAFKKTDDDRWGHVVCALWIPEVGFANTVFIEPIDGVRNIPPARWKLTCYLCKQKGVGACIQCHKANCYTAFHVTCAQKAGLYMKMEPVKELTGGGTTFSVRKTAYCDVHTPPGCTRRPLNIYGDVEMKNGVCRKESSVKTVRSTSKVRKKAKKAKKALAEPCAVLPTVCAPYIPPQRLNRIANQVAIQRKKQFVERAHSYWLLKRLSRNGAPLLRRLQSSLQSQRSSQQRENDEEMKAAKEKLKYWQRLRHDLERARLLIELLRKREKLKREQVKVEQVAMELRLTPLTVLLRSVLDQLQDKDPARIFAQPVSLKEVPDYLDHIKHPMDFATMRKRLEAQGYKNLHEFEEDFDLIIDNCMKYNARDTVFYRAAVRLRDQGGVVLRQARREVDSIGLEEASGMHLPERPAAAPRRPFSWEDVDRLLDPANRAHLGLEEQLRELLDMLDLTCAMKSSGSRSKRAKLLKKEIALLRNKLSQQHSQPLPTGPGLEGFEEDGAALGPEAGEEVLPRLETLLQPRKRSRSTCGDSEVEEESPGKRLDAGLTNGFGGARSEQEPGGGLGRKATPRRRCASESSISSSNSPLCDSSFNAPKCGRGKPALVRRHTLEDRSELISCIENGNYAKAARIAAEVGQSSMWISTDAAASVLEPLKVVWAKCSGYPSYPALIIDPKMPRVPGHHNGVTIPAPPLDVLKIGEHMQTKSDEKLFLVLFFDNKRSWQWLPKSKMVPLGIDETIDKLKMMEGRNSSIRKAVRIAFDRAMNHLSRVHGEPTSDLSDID
Briefly: Binding affinity to human partial length BRD1 (E556 to A688 residues) expressed in bacterial expression system by BROMOscan assay.

The target in test [3] is Chromatin remodeling regulator CECR2 (Homo sapiens, UniProt Q9BXF3). Briefly: Inhibition of BSP-BODIPY binding to Nanoluc-tagged CECR2 (unknown origin) expressed in HEK293 cells measured after 4 to 6 hrs by NanoBRET assay. It counts as cell-based. A general note: Bioluminescence resonance energy transfer reports proximity on the nanometre scale.
Chain of Chromatin remodeling regulator CECR2 (Q9BXF3 whole entry): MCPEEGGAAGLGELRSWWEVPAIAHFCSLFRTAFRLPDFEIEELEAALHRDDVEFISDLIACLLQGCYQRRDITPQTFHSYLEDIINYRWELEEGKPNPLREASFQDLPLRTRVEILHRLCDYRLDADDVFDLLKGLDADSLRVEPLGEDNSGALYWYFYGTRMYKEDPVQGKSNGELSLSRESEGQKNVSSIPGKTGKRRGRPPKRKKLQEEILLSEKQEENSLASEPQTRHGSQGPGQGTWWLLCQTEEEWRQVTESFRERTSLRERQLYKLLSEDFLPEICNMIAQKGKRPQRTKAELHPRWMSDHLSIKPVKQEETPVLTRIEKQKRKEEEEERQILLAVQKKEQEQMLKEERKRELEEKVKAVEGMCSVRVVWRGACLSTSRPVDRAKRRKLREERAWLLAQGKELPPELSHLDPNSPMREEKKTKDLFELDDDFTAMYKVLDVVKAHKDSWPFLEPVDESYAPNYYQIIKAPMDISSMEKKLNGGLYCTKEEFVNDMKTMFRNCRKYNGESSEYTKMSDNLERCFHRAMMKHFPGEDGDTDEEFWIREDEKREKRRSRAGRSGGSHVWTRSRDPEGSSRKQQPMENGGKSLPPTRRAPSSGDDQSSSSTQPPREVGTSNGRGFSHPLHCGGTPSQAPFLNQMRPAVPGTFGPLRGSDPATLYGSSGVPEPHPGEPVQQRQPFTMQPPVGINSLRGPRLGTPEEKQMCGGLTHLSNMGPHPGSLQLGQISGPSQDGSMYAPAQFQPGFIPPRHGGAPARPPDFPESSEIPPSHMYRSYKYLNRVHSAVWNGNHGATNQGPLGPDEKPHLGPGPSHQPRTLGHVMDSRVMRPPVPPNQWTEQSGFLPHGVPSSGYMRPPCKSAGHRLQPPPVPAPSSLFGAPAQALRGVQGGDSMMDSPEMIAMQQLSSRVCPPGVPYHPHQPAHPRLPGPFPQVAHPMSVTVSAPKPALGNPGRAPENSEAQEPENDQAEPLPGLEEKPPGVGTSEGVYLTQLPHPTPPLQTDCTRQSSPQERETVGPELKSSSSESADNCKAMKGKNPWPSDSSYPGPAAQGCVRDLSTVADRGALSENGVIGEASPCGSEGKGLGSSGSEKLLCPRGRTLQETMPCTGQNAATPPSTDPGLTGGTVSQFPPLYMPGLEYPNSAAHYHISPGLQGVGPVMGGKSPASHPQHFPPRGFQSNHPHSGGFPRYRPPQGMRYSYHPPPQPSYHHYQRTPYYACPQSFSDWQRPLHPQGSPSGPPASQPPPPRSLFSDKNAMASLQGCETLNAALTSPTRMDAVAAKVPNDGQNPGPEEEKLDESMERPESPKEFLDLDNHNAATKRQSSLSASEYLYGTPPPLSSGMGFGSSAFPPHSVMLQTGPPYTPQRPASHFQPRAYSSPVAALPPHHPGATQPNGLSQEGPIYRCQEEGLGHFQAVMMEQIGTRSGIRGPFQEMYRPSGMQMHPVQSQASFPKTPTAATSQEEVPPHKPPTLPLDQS

Turning to `C[C@H]1CCN(S(=O)(=O)c2cc(NC(=O)CN3C(=O)N[C@@](C)(C4CC4)C3=O)ccc2Br)C1`, the Kd was 20 nM in test [1] and 126 nM in test [2]. For the same molecule, in test [3], the concentration for half-maximal inhibition (IC50) is 251 nM.

What is called Kd is the concentration at which binding is half-saturated. A low value points to higher affinity. For orientation: IC50 means the concentration that gives 50% inhibition. Low values mean greater potency in that assay, high ones weaker potency in that assay.
